“And” between values parts separate entries of the source, which are not always exact repeats. Identical values can stand only once.
Legend:
other CYP450 enzymes = details: cited from earlier work
[1] = Differential scanning calorimetry; type: physicochemical; details: heated 10° C./min from 22° C. to 250° C.
Procedure: Differential scanning calorimetry (DSC) was performed using a TA Instruments Model Q-100 module with a Thermal Analyst controller. Data were collected and analyzed using TA Instruments Thermal Solutions software. A 2.8 mg sample of the crystalline hydrochloride salt of Example 8 was accurately weighed into a covered aluminum pan. After a 5 minute isothermal equilibration period at 22° C., the sample was heated using a linear heating ramp of 10° C./min from 22° C. to 250° C. A representative DSC thermograph is shown in FIG. 2 of U.S. Pat. No. 8,304,433 B2.

subjects with nOH = assay: Phase 2 clinical study in subjects with nOH, Part A (dose escalation); type: in vivo, human; parameters: key to Improvement in Seated SBP / Improvement in Time Standing / Improvement in Dizziness or Lightheadedness: ✓: Dose-related improvement observed relative to placebo
Source text: A Phase 2 clinical trial study is being conducted with 4-[2-(2,4,6-trifluorophenoxymethyl)phenyl]piperidine hydrochloride (“Study Compound”). The study is a multicenter, randomized, two-part, single-(Part A) and double-blind (Part B) study of the Study Compound versus placebo in subjects with nOH. An open-label, extension study to evaluate efficacy, safety and tolerability of the Study Compound will also be conducted (Part C). Part A follows a daily, single, escalating dose design starting with placebo on Day 1, followed by a dose of 1 mg of Study Compound on Day 2, and proceeding to escalating higher doses of Study Compound on a daily basis up to a maximum dose of 10 mg based on safety, tolerability, and determination of a pressor effect.
Subjects included in the study are male or female between the age of 40 and 80 years (inclusive) that have been diagnosed with symptomatic orthostatic hypotension due to pure autonomic failure, multiple system atrophy or Parkinson's disease (i.e., PD plus symptoms). At screening, autonomic function testing is conducted to confirm the diagnosis of autonomic dysfunction including sinus arrhythmia and the Valsalva maneuver.
In Part A, all doses (Study Compound and placebo) are administered in a single-blind manner (i.e., subject remains blinded) using an oral dosing solution. Up to 30 subjects are enrolled in Part A. Two days before the start of Part A, subjects are admitted to the clinical research center (CRC) where they remain during the entire dose escalation period. On Day 1, subjects receive a single dose of placebo. On Day 2, subjects receive a single 1 mg dose of Study Compound. On each subsequent day, subjects receive a single escalating dose of Study Compound as follows: 2.5 mg on Day 3; 5 mg on Day 4; 10 mg on Day 5 unless the following preset stopping criteria occur: • (a) a determination from the Investigator (in collaboration with the Sponsor) that administration of the subsequent next dose may pose a safety concern; • (b) SBP ≥180 mm or DBP ≥110 mm in the sitting position replicated 2 more times over an hour; • (c) intolerable side effects as determined by the Investigator; or • (d) subject receives maximum dose of study medication specified by the protocol.
Once the subject meets any of the above criteria, no further dose escalation is performed. Following a post-dosing observation day in the clinic, the subject is released from the CRC.
Seated and standing systolic blood pressure and completion of an Orthostatic Hypotension Symptom Assessment (OHSA) questionnaire are used to assess efficacy. For Part C, ambulatory blood pressure monitoring is used if available to measure blood pressure every 2 hours for 24-hour period before dosing on Day 1; and 72 to 48 hours before Day 15, Day 29, Day 85 and Day 169 clinic visits. Additionally, blood pressure is taken 20-30 mins before eating each morning about being supine (30 degree elevation) for at least 10 mins.
For both Parts A and B, the primary study endpoint is the difference from placebo of seated systolic blood pressure at 6 to 8 hours after drug administration. For Part A, placebo refers to the Day 1 visit, and the difference from placebo refers to the time-matched difference from each Study Compound dosing day (Days 2 through 5) relative to placebo dosing (Day 1). For Part C, primary study endpoint is improvement in the Likert scale for “dizziness, lightheadedness, feeling faint, or feeling like you might black out” (OHSA question 1) at week 4. […]

[2] = individual patient, Part A, oral solution up to 10 mg/day, vs placebo, preliminary

| Compound | impact of inhibition of other CYP450 enzymes on metabolism (other CYP450 enzymes) | thermal stability by DSC [1] | MSA patients showing improvement relative to placebo in at least one category (subjects with nOH; MSA patients completing Part A, 6 of 6) | Improvement in Dizziness or Lightheadedness (subjects with nOH; [2]) | Improvement in Time Standing (subjects with nOH; [2]) | Improvement in Seated SBP (subjects with nOH; individual patient, Part A, oral solution up to 10 mg/day, vs placebo, preliminary, Hydrochloride) | patients showing an improvement relative to placebo in at least one of seated SBP, standing time, dizziness or lightheadedness (subjects with nOH; patients completing Part A, 10 of 12) |
| --- | --- | --- | --- | --- | --- | --- | --- |
| CNCC[C@@H](Oc1ccccc1C)c1ccccc1 [atomoxetine] | not significantly impacted |  |  |  |  |  |  |
| Cl.Fc1cc(F)c(OCc2ccccc2C2CCNCC2)c(F)c1 [4-[2-(2,4,6-Trifluorophenoxymethyl)phenyl]piperidine Hydrochloride] |  | excellent thermal stability | 100% | ✓ | ✓ | ✓ (6×) and ✓^2 | 83% |
